Source: US9746480B2, “Human myeloid derived suppressor cell cancer markers” (University of Southern California, priority 2011, dated 2017)
“Also recorded” adds a separate entry of the source.

Experiments:
CD33^+ MDSC [1] = experiment: Suppression Assay in presence or absence of specific inhibitors of MDSC suppressive mechanisms; type: cell-based, human; conditions: tumor cell line-induced CD33+ MDSC, CD3/CD28-stimulated autologous T cells, with inhibitor
Experimental: Further characterization of tumor-induced canonical CD33^+ MDSC subset by analysis of the expression of putative MDSC suppression genes was performed. For these studies, expression of putative suppression genes was measured in tumor cell line-induced MDSC, including those induced by SCCL-MT1 HNSCC cell line and those induced by 4-998 osteogenic sarcoma, DU 145 prostate carcinoma, CAKI-1 renal cell carcinoma, SK-OV-3 ovarian carcinoma, and SW 608 and SW 732 colorectal adenocarcinoma cell lines (FIG. 6A), and compared to expression levels in normal, non-suppressive CD33^+ myeloid cells from medium only cultures. […] To determine the dominant mechanism of T cell suppression by this canonical CD33^+ MDSC subset, suppression assays were repeated in the presence or absence of specific inhibitors of ARG-1 (nor-NOHA), iNOS (L-NMMA), NOX2 (apocynin), VEGF (neutralizing antibody Avastin), or TGFβ1 (SB431542 or neutralizing antibody 1D11).

CD33^+ MDSC [2] = experiment: Reversal of suppressive function of tumor cell line-induced CD33+ MDSC by drugs; type: cell-based, human; conditions: drug-treated CD33+ MDSC
CD33^+ MDSC [3] = experiment: qRT-PCR gene expression in treated CD33+ MDSC; type: cell-based, human; conditions: treated vs untreated CD33+ MDSC, mRNA
CD11b^+ MDSC [4] = experiment: qRT-PCR gene expression in treated CD11b+ MDSC; type: cell-based, human; conditions: treated vs untreated CD11b+ MDSC, mRNA
CD11b^+ MDSC [5] = experiment: Functional inhibition of tumor cell line-induced CD11b+ MDSC by drugs; conditions: drug-treated CD11b+ MDSC

Molecule: COc1cc(C(C)=O)ccc1O [apocynin]
- suppression of T cell proliferation by CD33+ MDSC (CD33^+ MDSC [1]): statistically significant decreases in suppression

Molecule: CC1=C(/C=C/C(C)=C/C=C/C(C)=C/C(=O)O)C(C)(C)CCC1 [ATRA]
- CD33+ MDSC suppressive function (CD33^+ MDSC [2]): Inhibition; also recorded: Reversal
- HIF1α expression (CD33^+ MDSC [3]): decreased
- STAT3 expression (CD33^+ MDSC [3]): decreased
- C/EBPβ expression (CD11b^+ MDSC [4]): decreased
- HIF1α expression (CD11b^+ MDSC [4]): no change
- STAT3 expression (CD11b^+ MDSC [4]): no change
- CD11b+ MDSC suppressive function (CD11b^+ MDSC [5]): Functional inhibition

Molecule: N=C(NO)NCC[C@H](N)C(=O)O [nor-NOHA]
- suppression of T cell proliferation by CD33+ MDSC (CD33^+ MDSC [1]): statistically significant decreases in suppression

Molecule: lipopolysaccharide
- ARG-1 expression (CD33^+ MDSC [3]): increased expression
- C/EBPβ expression (CD33^+ MDSC [3]): further up-regulation
- HIF1α expression (CD33^+ MDSC [3]): further up-regulation
- NOX2-component NCF1 expression (CD33^+ MDSC [3]): increased expression
- STAT3 expression (CD33^+ MDSC [3]): further up-regulation
- iNOS expression (CD33^+ MDSC [3]): increased expression
- ARG-1 expression (CD11b^+ MDSC [4]): increased expression
- C/EBPβ expression (CD11b^+ MDSC [4]): further up-regulation
- HIF1α expression (CD11b^+ MDSC [4]): further up-regulation
- NOX2-component NCF1 expression (CD11b^+ MDSC [4]): increased expression
- STAT3 expression (CD11b^+ MDSC [4]): further up-regulation
- iNOS expression (CD11b^+ MDSC [4]): increased expression
